Read-outs that look alike come from different tables or passages of the source.
Assays:
[1] = test system: Pythium ultimum; experiment: Amended agar assay (potato dextrose agar), reduction in colony growth; assay type: cell-based; conditions: for inhibition of growth at 20 ppm / EC50: Globisporangium ultimum; for inhibition of growth at 20 ppm / control over the fungal pathogens tested (in words): primary screen at 20 ppm; for inhibition of growth at 20 ppm: read-out: % control at 20 ppm; for EC50: read-out: Pythium ultimum (EC50)
Experimental: (§1) Testing was carried out on potato dextrose agar (PDA) amended with each compound at test concentrations of 20, 4 and 0.8, 0.16 and 0.032 ppm. Amended agar at each test concentration was poured into three replicate 9 cm petri dishes. Each replicate dish was inoculated in the centre with a 5 mm agar plug taken from the leading edge of a culture aged between 2 and 7 days old; the age of the culture was dependant on the growth rate of the pathogen being tested. The test pathogens were Pythium ultimum and Phytophthora cinnamomi. Plates were incubated at 18° C. and the diameter of each colony measured before growth on the fastest growing plate reached the plate edge. This varied between 2 and 7 days depending on the growth rate of test pathogens. The % reduction in colony growth compared to the control was calculated for each test concentration and pathogen combination.
(§2) The results are shown in Table 1 in which * represents an average control of up to 50% at said dosage; ** represents an average control of 50% or greater but less than 80% at said dosage; and *** represents an average control of 80% or greater at said dosage.
(§3) A primary screen was also conducted for a number of other compounds of the invention. The screen was conducted at 20 ppm and the results are provided in Table 2, in which D represents no control detected at this concentration; C represents up to 50% control; B from 50 to 99% control; and A represents a control of greater than 99%.
(§4) Alternatively, or in addition, the same assay was conducted at descending test concentrations with 5-fold dilutions typically down to 0.032 ppm, and an EC50 (the concentration at which 50% control would be achieved) was determined. The results are provided in Table 1 in which G represents an EC50 above 20 ppm, F represents an EC50 of 2-20 ppm and E represents and EC50 less than 2 ppm.

[2] = test system: Phytophthora cinnamomi; experiment: as above; assay type: cell-based; conditions: for inhibition of growth at 20 ppm / control over the fungal pathogens tested (in words): primary screen at 20 ppm; for inhibition of growth at 20 ppm: read-out: % control at 20 ppm; for EC50: read-out: Phytophthora cinnamomi (EC50)
Experimental: as §1, §2, §3, §4

[3] = Pythium ultimum, dose 0.032 ppm in amended agar
[4] = Pythium ultimum, dose 0.16 ppm in amended agar
[5] = Pythium ultimum, dose 0.8 ppm in amended agar
[6] = Pythium ultimum, dose 4 ppm in amended agar
[7] = Pythium ultimum, dose 20 ppm in amended agar
[8] = descending test concentrations, 5-fold dilutions typically down to 0.032 ppm

Row | Structure (SMILES) | EC50 [1, 8] [µg/mL] | EC50 [2, 8] [µg/mL] | inhibition of growth at 20 ppm ([1]; Pythium ultimum) [%] | inhibition of growth at 20 ppm [2] [%] | further results
1 | Cn1nnnc1C(=NOCc1cccc(NC(=O)C(F)(F)Oc2ccccc2)n1)c1ccccc1 [A, reference compound] |  |  | > 99 | > 99 | average % control at given dosage [1, 3]: *** (an average control of 80% or greater at said dosage); average % control at given dosage [1, 4]: *** (an average control of 80% or greater at said dosage); average % control at given dosage [1, 5]: *** (an average control of 80% or greater at said dosage); average % control at given dosage [1, 6]: *** (an average control of 80% or greater at said dosage); average % control at given dosage [1, 7]: *** (an average control of 80% or greater at said dosage); average % control at given dosage ([2]; dose 0.032 ppm in amended agar): *** (an average control of 80% or greater at said dosage); average % control at given dosage ([2]; dose 0.16 ppm in amended agar): *** (an average control of 80% or greater at said dosage); average % control at given dosage ([2]; dose 0.8 ppm in amended agar): *** (an average control of 80% or greater at said dosage); average % control at given dosage ([2]; dose 4 ppm in amended agar): *** (an average control of 80% or greater at said dosage); average % control at given dosage ([2]; dose 20 ppm in amended agar): *** (an average control of 80% or greater at said dosage)
2 | Cn1nnnc1N(C(=O)OCc1cccc(NC(=O)C(F)(F)Oc2ccccc2)n1)c1ccccc1 [B, reference compound] |  |  |  |  | average % control at given dosage [1, 3]: * (an average control of up to 50% at said dosage); average % control at given dosage [1, 4]: ** (an average control of 50% or greater but less than 80% at said dosage); average % control at given dosage [1, 5]: ** (an average control of 50% or greater but less than 80% at said dosage); average % control at given dosage [1, 6]: *** (an average control of 80% or greater at said dosage); average % control at given dosage [1, 7]: *** (an average control of 80% or greater at said dosage); average % control at given dosage ([2]; dose 0.032 ppm in amended agar): * (an average control of up to 50% at said dosage); average % control at given dosage ([2]; dose 0.16 ppm in amended agar): ** (an average control of 50% or greater but less than 80% at said dosage); average % control at given dosage ([2]; dose 0.8 ppm in amended agar): ** (an average control of 50% or greater but less than 80% at said dosage); average % control at given dosage ([2]; dose 4 ppm in amended agar): ** (an average control of 50% or greater but less than 80% at said dosage); average % control at given dosage ([2]; dose 20 ppm in amended agar): ** (an average control of 50% or greater but less than 80% at said dosage)
3 | Cn1nnnc1-n1c(OCc2cccc(NC(=O)C(F)(F)Oc3ccccc3)n2)nc2ccccc21 [Example 1, 2,2-Difluoro-N-(6-(((1-(1-methyl-1H-tetrazol-5-yl)-1H-benzo[d]imidazol-2-yl)oxy)methyl)pyridin-2-yl)-2-phenoxyacetamide] | < 2 | < 2 | > 99 | > 99 | control over the tested oomycete fungal plant pathogens (in words) ([1]; Pythium ultimum, Table 1 doses 0.032-20 ppm, even at low concentrations): excellent control; average % control at given dosage [1, 3]: *** (an average control of 80% or greater at said dosage); average % control at given dosage [1, 4]: *** (an average control of 80% or greater at said dosage); average % control at given dosage [1, 5]: *** (an average control of 80% or greater at said dosage); average % control at given dosage [1, 6]: *** (an average control of 80% or greater at said dosage); average % control at given dosage [1, 7]: *** (an average control of 80% or greater at said dosage); control over the fungal pathogens tested (in words) ([1]; Pythium ultimum): excellent control; control over the tested oomycete fungal plant pathogens (in words) ([2]; Table 1 doses 0.032-20 ppm, even at low concentrations): excellent control; average % control at given dosage ([2]; dose 0.032 ppm in amended agar): *** (an average control of 80% or greater at said dosage); average % control at given dosage ([2]; dose 0.16 ppm in amended agar): *** (an average control of 80% or greater at said dosage); average % control at given dosage ([2]; dose 0.8 ppm in amended agar): *** (an average control of 80% or greater at said dosage); average % control at given dosage ([2]; dose 4 ppm in amended agar): *** (an average control of 80% or greater at said dosage); average % control at given dosage ([2]; dose 20 ppm in amended agar): *** (an average control of 80% or greater at said dosage); control over the fungal pathogens tested (in words) [2]: excellent control
4 | Cn1nnnc1-n1c(OCc2cccc(NC(=O)OC(C)(C)C)n2)nc2ccccc21 [Example 2] | < 2 | < 2 | > 99 | > 99 | control over the fungal pathogens tested (in words) ([1]; Pythium ultimum): excellent control; control over the fungal pathogens tested (in words) [2]: excellent control
5 | Cc1cccnc1-n1c(OCc2cccc(NC(=O)C(F)(F)Oc3ccccc3)n2)nc2ccccc21 [Example 3] | < 2 | < 2 | 50 to 99 | 50 to 99 | 
6 | Cn1nccc1-n1c(OCc2cccc(NC(=O)C(F)(F)Oc3ccccc3)n2)nc2ccccc21 [Example 4] | < 2 | < 2 | 50 to 99 | 50 to 99 | 
7 | Cc1noc(-n2c(OCc3cccc(NC(=O)C(F)(F)Oc4ccccc4)n3)nc3ccccc32)c1C [Example 5, N-(6-(((1-(3,4-Dimethylisoxazol-5-yl)-1H-benzo[d]imidazol-2-yl)oxy)methyl)pyridin-2-yl)-2,2-difluoro-2-phenoxyacetamide] |  |  | 50 to 99 | < 50 | 
8 | Cn1nnnc1-n1c(OCc2cccc(NC(=O)C(F)(F)Oc3ccccc3)n2)nc2ccc(F)cc21 [Example 6] | < 2 | < 2 | > 99 | > 99 | control over the fungal pathogens tested (in words) ([1]; Pythium ultimum): excellent control; control over the fungal pathogens tested (in words) [2]: excellent control
9 | O=C(Nc1cccc(COc2nc3ccccc3n2-c2ccccn2)n1)C(F)(F)Oc1ccccc1 [Example 7] | > 20 | > 20 |  |  | 
10 | Cc1cc(-n2c(OCc3cccc(NC(=O)C(F)(F)Oc4ccccc4)n3)nc3ccccc32)sn1 [Example 8] |  |  | < 50 |  | 
11 | O=C(Nc1cccc(COc2nc3ccccc3n2-c2ccon2)n1)C(F)(F)Oc1ccccc1 [Example 9] | > 20 | > 20 |  |  | 
12 | CC(=O)Nc1cccc(COc2nc3ccccc3n2-c2nnnn2C)n1 [Example 10, N-(6-(((1-(1-Methyl-1H-tetrazol-5-yl)-1H-benzo[d]imidazol-2-yl)oxy)methyl)pyridin-2-yl)acetamide] |  |  | 45 to 55 | 50 to 99 | 
13 | CCOC(=O)Nc1cccc(COc2nc3ccccc3n2-c2nnnn2C)n1 [Example 11, Ethyl (6-(((1-(1-methyl-1H-tetrazol-5-yl)-1H-benzo[d]imidazol-2-yl)oxy)methyl)pyridin-2-yl)carbamate] | < 2 | < 2 | > 99 | 50 to 99 | control over the fungal pathogens tested (in words) ([1]; Pythium ultimum): excellent control; control over the fungal pathogens tested (in words) [2]: excellent control
14 | Cn1nnnc1-n1c(OCc2cccc(NC(=O)OC3CCCC3)n2)nc2ccccc21 [Example 12] | < 2 | < 2 |  |  | 
15 | CCCCOC(=O)Nc1cccc(COc2nc3ccccc3n2-c2nnnn2C)n1 [Example 13] | < 2 | < 2 |  |  | 
16 | Cn1nnnc1-n1c(OCc2cccc(NC(=O)Oc3ccccc3)n2)nc2ccccc21 [Example 15] |  |  |  |  | EC50 [1]: < 2 µg/mL; EC50 [2]: < 2 µg/mL

Second part, led by results:

Row | EC50 [1, 8] [µg/mL] | EC50 [2, 8] [µg/mL] | Structure (SMILES) | inhibition of growth at 20 ppm ([1]; Pythium ultimum) [%] | inhibition of growth at 20 ppm [2] [%] | further results
17 | < 2 | < 2 | Cn1nnnc1-n1c(OCc2cccc(NC(=O)OCc3ccccc3)n2)nc2ccccc21 [Example 14] |  |  | 
18 | < 2 | < 2 | CCCCCOC(=O)Nc1cccc(COc2nc3ccccc3n2-c2nnnn2C)n1 [Example 16] |  |  | 
19 | < 2 | < 2 | CC(C)OC(=O)Nc1cccc(COc2nc3ccccc3n2-c2nnnn2C)n1 [Example 17] |  |  | 
20 | < 2 | < 2 | CC(C)COC(=O)Nc1cccc(COc2nc3ccccc3n2-c2nnnn2C)n1 [Example 18] |  |  | 
21 | < 2 | < 2 | C=CCOC(=O)Nc1cccc(COc2nc3ccccc3n2-c2nnnn2C)n1 [Example 19] |  |  | 
22 | < 2 | < 2 | COCCOC(=O)Nc1cccc(COc2nc3ccccc3n2-c2nnnn2C)n1 [Example 20] |  |  | 
23 | < 2 | < 2 | CCCOC(=O)Nc1cccc(COc2nc3ccccc3n2-c2nnnn2C)n1 [Example 21] |  |  | 
24 | < 2 | < 2 | Cn1nnnc1-n1c(OCc2cccc(NC(=O)CC3CCCC3)n2)nc2ccccc21 [Example 22, 2-Cyclopentyl-N-(6-(((1-(1-methyl-1H-tetrazol-5-yl)-1H-benzo[d]imidazol-2-yl)oxy)methyl)pyridin-2-yl)acetamide] |  |  | 
25 | < 2 | < 2 | Cn1nnnc1-n1c(OCc2cccc(NC(=O)C3CCCC3)n2)nc2ccccc21 [Example 23] |  |  | 
26 | < 2 | < 2 | Cn1nnnc1-n1c(OCc2cccc(NC(=O)COCc3ccccc3)n2)nc2ccccc21 [Example 24] |  |  | 
27 | < 2 | < 2 | Cn1nnnc1-n1c(OCc2cccc(NC(=O)COc3ccccc3)n2)nc2ccccc21 [Example 25] |  |  | 

Reference: US11641858B2, “Agricultural chemicals” (Redag Crop Protection Ltd, priority 2016, dated 2023)
